Test results from patent US20220409510A1, “Polypeptides And Methods For Improving Skin Conditions” (Interk Peptide Therapeutics Limited, priority 2018, published 2022).

Experiments:
TGFβRII = TGFβRII expression in UV irradiated dermal fibroblasts (Western analysis); format: cell-based, human; settings: 1, 2.5, 5 and 10 μM added immediately after UV; 5 h post UV; primary fibroblasts; FIG. 3B
Protocol: The influence of the polypeptide IK34720 (SEQ ID NO: 3) on TGFβRII phosphorylation was assessed using the following protocol.
Human skin dermal fibroblasts were cultured from keratome biopsies of healthy adult human skin. Cells were between passages three and six. For UV irradiation, subconfluent cells were washed once with phosphate-buffered saline (PBS) and irradiated with UV. Immediately following irradiation, negative control (vehicle) or 1 μM, 2.5 μM, 5 μM and 10 μM of IK34720 (“1K” in FIG. 3B, SEQ ID NO: 3) were added to the cell cultures.
For Western analysis, nuclear extracts were prepared, membrane fractions were prepared and resolved on 8% SDS-polyacrylamide gel electrophoresis, transferred to polyvinylidene difluoride membrane, and reacted with primary antibodies. Blots were visualized and quantified.

[1] = tested on: CPD formation in the skin; test: CPD formation in the skin of mice after acute UV-irradiation; format: in vivo, Skh:hr1 hairless mice; settings: topical immediately after UVR, doses as Example 4; 3 hours post-UVR; vs vehicle
Protocol: Female Skh:hr1 hairless mice were exposed to solar simulated UV-irradiation as described above at Example 4. Immediately after irradiation mice were treated topically on the dorsal surface also as described in Example 4. Subsequently, skin was fixed at 3 hours post-UVR, and subjected to immuno-histochemical staining using the antibody directed against thymine dimers (CPD) described above at 10 μg/ml. […] In FIG. 9, dark staining in nuclei indicates the presence of thymine dimers (CPD), and the % area stained is presented. Immunohistology was quantified as per Example 4.

apoptotic keratinocytes = test: Sunburn (apoptotic) cells in mouse skin after UV-irradiation; format: in vivo, Skh:hr1 hairless mice; settings: topical 20, 100 or 200 ug in 100 uL immediately after UVR; FIG. 11
Protocol: UV-induced DNA damage in the form of elevated CPDs can induce mutations in epidermal cells leading to the development of cancer cells. Reduction of CPDs through application of DNA repair enzymes prevents the risk of UV-induced skin cancer and reduce the level of apoptotic cells following UV-induced damage. The number of apoptotic skin cells following UV-irradiation was assessed in accordance with the following protocol.
Female Skh:hr1 hairless mice were prepared, irradiated and biopsied according to the methods of Example 4. Prior to biopsy, and immediately after irradiation, mice were treated with either a base lotion vehicle (negative control), 11.4 pmol/cm2 of Calcitriol in vehicle (positive control) the polypeptide IK34720 (SEQ ID NO: 3) in water, at 20 ug, 100 ug or 200 ug in a total volume of 100 uL.
Biopsies were taken from UV-irradiated dorsal skin 3 hrs post-UVR and fixed in Histochoice fixative (Amresco, Solon OH) for 6 h. Skin samples were paraffin-embedded and 5 micrometre sections were cut for all analyses. Sections (24 h after UV) were subjected to routine hematoxylin and eosin staining for visualization of sunburn cells. The stained sections were examined under a Zeiss-Axioplan light microscope at 40× magnification, and the number of sunburn cells per linear millimetre of skin section recorded.

[2] = tested on: CPDs in human skin explants; test: CPD formation in human skin explants after UV-irradiation; format: cell-based
Protocol: Human skin removed at elective surgery was cleaned, dissected and cut into pieces of approx. 5 mm×5 mm. Each piece was placed in a well of a 96 well plate, with individual plates prepared to assess the effects 3 hrs post treatment. All samples were performed in triplicate for each treatment. Skin was subjected to UV-radiation from solar-simulated UV source for 1.5 h (UVR), or non-irradiation (SHAM). Given that human skin is thicker than mouse skin, human skin explants were exposed to a radiation dose three times higher than that used for mouse skin, i.e., 20 J/cm2 versus 7 J/cm2, respectively, and the output spectrum of the laboratory solar simulator has previously been reported (Rybchyn MS et al, J Invest Dermatol. 2018 May; 138(5):1146-1156) and treated immediately after with a vehicle control, Calcitriol (1 nM) or the polypeptide IK34720 (SEQ ID NO: 3) at concentrations of 50 μM, 250 μM or 500 uM.
Samples harvested at 3 hrs were fixed, section, stained and quantified as described in Example 5.

[3] = molecular target: T1, Human rheumatoid synovial fibroblast MMP-1 (Homo sapiens, UniProt P03956); test: MMP-1 activity in vitro (fluorogenic substrate); format: biochemical; settings: 5, 10, 800 and 1000 μM; 8 nM activated enzyme; pH 7.2; FIG. 16
T1 construct: endogenous in cells; host or cells: human rheumatoid synovial fibroblasts (native proenzyme isolated from these cells)
T1 sequence (P03956 100-469): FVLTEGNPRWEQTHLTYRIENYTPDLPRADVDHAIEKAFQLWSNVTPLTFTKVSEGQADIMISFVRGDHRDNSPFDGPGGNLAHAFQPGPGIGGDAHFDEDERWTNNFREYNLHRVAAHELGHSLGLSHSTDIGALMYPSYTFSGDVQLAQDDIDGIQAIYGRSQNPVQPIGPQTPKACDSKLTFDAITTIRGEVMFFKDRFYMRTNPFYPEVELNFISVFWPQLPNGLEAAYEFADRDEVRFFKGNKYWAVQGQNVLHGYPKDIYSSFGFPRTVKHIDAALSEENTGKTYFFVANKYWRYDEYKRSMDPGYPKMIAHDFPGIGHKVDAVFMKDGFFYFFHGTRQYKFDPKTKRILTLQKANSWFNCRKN
Protocol: The effect of the polypeptide IK34720 (SEQ ID NO: 3) on MMP-1 activity was evaluated using the following protocol.
Human rheumatoid synovial fibroblast MMP-1 proenzyme, activated with APMA for 60 minutes at 37° C., was used as an active enzyme. The polypeptide IK34720 (SEQ ID NO: 3) at a concentration of 5 μM. 10 μM 800 μM and 1000 μM was pre-incubated with 8 nM activated enzyme in modified MOPS buffer pH 7.2 for 60 minutes at 37° C. The reaction was initiated by addition of […] Mca-Pro-Leu-Gly-Leu-Dap-Ala-Arg followed by a 2 hour incubation period. Determination of the amount of Mca-Pro-Leu-Gly formed was read spectrofluorimetrically at 340 nm/400 nm.

RSKAKNPLYRRRRRRRRR [IK34720, 18-residue polypeptide: … with a C-terminal polyarginine region of 8 arginines]
TGFβRII expression (TGFβRII): restored TGFβRII expression in UV treated cells
CPD formation in the skin (CPD nuclei) [1]: inhibits CPD formation
number of apoptotic keratinocytes (sunburn cells) (apoptotic keratinocytes): reduced the number of apoptotic keratinocytes
percentage of CPD positive cells ([2]; 500 μM, 3 hrs, two individuals, FIG. 13A and B): statistically significantly reduced
cells having CPDs (stained cells) ([2]; 3 hrs post irradiation/treatment, Calcitriol 1 nM, IK34720 50, 250 or 500 uM, FIG. 12): fewer stained cells
MMP-1 activity [3]: inhibits MMP-1 activation in a dose dependent manner
